# From patent US4151281A, “Medicinal preparation for the treatment of collagenoses of a rheumatoid nature” (priority 1977, dated 1979)
# Assays:
# [1] = tested on: systemic scleroderma; details: known preparations; cited from earlier work
# [2] = cited from earlier work
# [3] = single administration by probe into the stomach to narcotized cats; assay type: in vivo
# Method: After a 1,000 mg/kg dose, these symptoms are more pronounced.
# [4] = tested on: adrenal cortex; experiment: corticosteroid concentration in the blood of rheumatoid arthritis or systemic lupus erythematosus patients during clinical trials; assay type: in vivo; details: regularly given
# Description: Accordingly, the observed increase of the concentration of corticosteroids in the blood of rheumatoid arthritis or systemic lupus erythematosus patients, regularly given the proposed preparation during clinical trials in the above mentioned doses, testifies to its stimulating effect on the andrenal cortex.
# [5] = tested on: systemic lupus erythematosus; experiment: clinical treatment of systemic lupus erythematosus; assay type: in vivo, patients
# Method: (§1) The method of treatment consists in oral administration of the proposed preparation in 0.1 to 0.2 g doses in tablet form […], or in the form of a 5% solution for injections with 5 ml doses once a day. The daily dose shall not be over 0.6 g per patient.
# Eight patients were treated for systemic lupus erythematosus.
# [6] = tested on: normal fibroblasts; experiment: 48-hour study of effect on cell growth in a culture of normal fibroblasts from healthy donors; assay type: cell-based; details: Fibroblast, 100-gamma per 1 ml of medium, read-out: reduction of the number of cells in the culture
# Description: This fact explains to a certain degree the action mechanism of the preparation in cases of systemic scleroderma.
# [7] = side effects and action on lasting administration, compared with known remedies for collagenoses; assay type: in vivo
# [8] = acute toxicity, single dose by probe into the stomach, albino mice, 3 days observation (Litchfield and Wilcoxson); details: mouse, in vivo, po, albino mice 16-17 g, limits in parentheses
# Method: The proposed preparation was tested for toxicity in the acute and chronic tests. The acute toxicity of the preparation was determined in tests in albino mice (weighing 16 to 17 g) by introducing (by means of a probe into the stomach) amounts equal to 1,000 to 5,000 mg/kg of the animals body weight. Each dose was tested in five animals. Observation was continued for three days.
# [9] = tested on: rheumatoid arthritis; experiment: clinical trial in patients with rheumatoid arthritis; assay type: in vivo
# Method: as §1
# The main group (69 persons) consisted of patients with rheumatoid arthritis in the 2nd and 3rd degree of activity.
# [10] = tested on: systemic scleroderma; experiment: clinical treatment of systemic scleroderma; assay type: in vivo, patients
# Method: as §1
# Five patients were treated for systemic scleroderma. […] One of these patients, following a 1.5 year course of treatment, resumed work after a three-year interval caused by the disease.
# [11] = chronic toxicity test, daily doses for three months, white rats; assay type: in vivo; details: for Index of anti-toxic function of the liver (quantity of isolated benzoic acid): P = 0.05
# Method: […] Each dose was investigated in 20 animals (10 males and 10 females). Twenty rats served as controls. Changes in weight were recorded, the general status and behavior were observed, the peripheral blood picture was examined (hemoglobin, erythrocytes, leukocytes, thrombocytes, the leukocytary formula). For determining the functional state of the liver, kidneys, the pancreas, some biochemical indices of the urine (albumin, sugar, bile pigments) and the blood (sugar, cholesterol, bilirubin, urea, alkaline phosphatase, chlorides) were examined, just as the antitoxic function of the liver.
# After the end of the tests the animals were slaughtered by decapitation: part of them immediately after the administration of the preparation, part-ten days later.
# The internal organs of the slaughtered animals were examined both macro- and microscopically.
# [12] = most of the patients, continued treatment
structure (smiles),measurement,setting,value
CC(C)Cc1ccc(C(C)C(=O)O)cc1 (stereo not shown) [Brufen],whether the above results are produced in systemic scleroderma,[1],not produced
CCN(CC)CCCC(C)Nc1ccnc2cc(Cl)ccc12 (stereo not shown) [Delagil],complications of antimalarial preparations,[2]; treatment of collagenoses of a rheumatoid nature,"cause leukopenia, and also affect the acoustic and optic nerves, the liver, the myocardium"
COc1ccc2c(c1)c(CC(=O)O)c(C)n2C(=O)c1ccc(Cl)cc1 [Indometacin],whether the above results are produced in systemic scleroderma,[1],not produced
same,mental disorders,[2]; derivatives of indole,"confused consciousness, somnolency"
same,ulcerogenic effect,"[2]; derivatives of indole, ulceration of the stomach, esophagus, the intestine",possess an ulcerogenic effect
"Cc1[nH]c(=O)[nH]c(=O)c1S(=O)(=O)Nc1ccc(S(=O)(=O)c2ccc(NS(=O)(=O)c3c(C)[nH]c(=O)[nH]c3=O)cc2)cc1 [preparation, p,p-/2,4-dioxy-6-methyl pyrimidinyl-5-sulfonamino/diphenyl sulfone]",symptoms,[3]; single 500 mg/kg,"unrest is observed (motorial excitation, mewing, salivation and vomiting)"
same,time after administration at which unrest is observed,[3]; single 500 mg/kg,10 to 20 min
same,condition on the second day after administration,"[3]; single 1,000 mg/kg",returned to normal
same,symptoms,"[3]; single 1,000 mg/kg",these symptoms are more pronounced. There is repeated vomiting and loss of appetite
same,visible changes,[3]; single 100 to 200 mg/kg,no visible changes
same,concentration of corticosteroids in the blood,[4],increase
same,complete recovery,"[5]; of eight patients, intake for two years",one
same,effect in the other cases on complications due to corticosteroids and quinoline preparations,[5]; other cases of eight patients,substantially alleviate the complications
same,inhibition at 100 µg/mL,[6],30%
same,function of the adrenal cortex,[7]; as testified by rising corticosteroids content of the blood,stimulates the function of the adrenal cortex
same,"complications of indole derivatives (ulceration, mental disorders)",[7]; even when used for many years,does not cause such complications
same,dosage of prescribed corticosteroids,[7]; in vivo,"to be reduced and, in individual cases, discontinuing them altogether"
same,general and water-and-salt metabolic disorders,[7]; in vivo,does not cause general and water-and-salt metabolic disorders
same,toxicity,[7]; in vivo,low toxicity
same,"complications of antimalarials (leukopenia; acoustic and optic nerves, liver, myocardium)",[7]; lasting administration (1-2 years and more),does not cause the above-mentioned complications
same,pre-existing metabolic disorders,[7]; when present,tend to normalize
same,LD50 at 72 h,[8],2600 mg/kg
same,"articular index after treatment, average","[9]; 61 patients, from 46-48 points",16-20 points
same,gravest patients who became capable of taking care of themselves unaided,"[9]; administration for 1.5 to 2 years, three bed-ridden for 3 to 5 years",Eight
same,"first compression force after treatment, average","[9]; all the patients, from 14.4±1.7 kgf",22.0±2.1 kgf
same,corticosteroid content in the blood,[9]; due to the increasing activity of the 11-oxicorticosteroids,increase
same,patients with articular index without change,[9]; during the period of treatment,8 patients
same,patients with reduced articular index,[9]; during the period of treatment,61 patients
same,C-reactive protein after treatment,"[9]; from (++++), most of the patients, continued treatment",(++) and even (+)
same,patients in whom the pain syndrome disappeared,"[9]; majority of patients, on the 10th to 12th day",51
same,ESR,[9]; [12],reduction
same,reduction of the sialic acid content of the blood,[9]; [12],0.05 optical density units
same,time to beginning of improvement of therapeutic indices,"[9]; not later than, after the beginning of treatment",3 to 4 weeks
same,patients in whom morning-time torpidity disappeared completely,[9]; of 69 patients,48 patients
same,patients managing on essentially reduced doses of corticosteroids,[9]; of the eight gravest patients,six
same,patients who do not need corticosteroids any more,[9]; of the eight gravest patients,two
same,patients with only an abatement of the pain syndrome (arthralgia),[9]; other patients,18 patients
same,period of morning-time torpidity after treatment,"[9]; other patients, shortened from 103.3±14.4 min",41.4 ± 9.73 min
same,patients with abatement of morning-time torpidity and greater scope of joint movement,[9]; out of the 69 patients,59 patients
same,leukocyte count,[9]; patients with leukopenias or leukocytoses accompanying rheumatoid arthritis,tendency towards the normalization
same,pain syndrome towards the end of the first week of treatment,[9]; rheumatoid arthritis,tangibly abated
same,patients in whom improvement took much longer,[9]; rheumatoid arthritis,8 patients
same,"reduction of skin induration, flexion contracture of the hand and sensation of skin tension",[10]; five patients,All of them manifested a reduction
same,patients who resumed work,"[10]; of five patients, 1.5 year course, after a three-year interval",One
same,Index of anti-toxic function of the liver (quantity of isolated benzoic acid),"[11]; females, after 3 months of 100 mg/kg oral doses (controls 10.1±5.1)",10.9±2.2
same,Index of anti-toxic function of the liver (quantity of isolated benzoic acid),"[11]; males, after 3 months of 100 mg/kg oral doses (controls 6.68±0.33)",6.5±1.14
same,fattiness at post mortem examination,"[11]; rat, in vivo",good fattiness
same,macro- and microscopic examination of organs,"[11]; rat, in vivo",no pathological changes
same,"weight of thyroid gland, testes, spleen and adrenal glands versus control group","[11]; rat, in vivo",did not differ
